Where two headings read alike, the source gives them in different places.
What was measured:
[1] = Pharmacokinetic evaluation in mice; format: in vivo, male ICR mice; conditions: for Vd: read-out: Vss; for F: po 10 mg/kg vs iv 2 mg/kg
Method: The compounds were administered by intravenous injection at a dose of 2 mg/kg and oral gavage at a dose of 10 mg/kg (0.5% CMC-Na suspension). 15 male ICR mice were selected for each group, and each mouse was subjected to blood collection at 3 discrete time points, with 3 mice per time point. The time points of sampling were as follows: before the administration, and at 5 min, 15 min, 30 min, 1 h, 3 h, 5 h, 8 h, 12 h and 24 h after the administration. 80 μL of blood was collected from the eye sockets or the hearts of the mice at each of the time points after the administration. All whole blood samples were collected in tubes containing EDTA K2 and centrifuged (1500-1600 rmp) at 4° C. for 10 min to isolate plasma, which was then stored in a refrigerator at −90 to −60° C. for sample analysis. The compound concentration in the plasma was determined by liquid chromatography-tandem mass spectrometry, and the corresponding pharmacokinetic parameters were obtained according to a plasma concentration-time curve.

H358 cells = experiment: Antiproliferative activity against H358 cells (Cell Titer Glow, ultra-low attachment plate); format: cell-based; conditions: three days after addition of compound
Method: 2500 H358 cells were seeded in a 96-well ultra-low attachment plate (corning, 7007). After one day of growth, a serially diluted compound (a maximum concentration of 5 μM, 5-fold dilution, a total of five doses) was added. Three days after the addition of the compound, Cell Titer Glow (Promega, G9681) was added to evaluate pellet growth, and the IC50 value was calculated.

pERK level in H358 cells = experiment: pERK and ERK protein content assay in H358 cells (ELISA); format: cell-based; conditions: 24 h, pERK/ERK ratio compared with DMSO group; for inhibition at 1 µM: Homo sapiens, NCI-H358, compound 1 μM, read-out: Inhibition rate (%) of pERK level
How it was run: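 H358 cells grown one day, then treated 24 h with compound at 1 μM. pERK and ERK in lysates measured by ELISA; pERK/ERK ratio expressed as percent inhibition versus DMSO.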

[2] = tested on: Human pancreatic cancer Mia PaCa-2 cells; experiment: Antitumor activity on graft tumors of human pancreatic cancer Mia PaCa-2 in nude mice; format: in vivo; conditions: Mia PaCa-2 graft tumors in nude mice, 10 mg/kg intragastric, qd*21
Method: Human pancreatic cancer Mia PaCa-2 cells were cultured conventionally in 1640 medium containing 10% fetal bovine serum in a 37° C./5% CO2 incubator. After passage, the cells were collected when they reached the desired amount. 1×10^7 Mia PaCa-2 cells were injected into the left dorsal side of each nude mouse, and the animals were randomly grouped for administration after tumors grew to 150 mm3. The groups are as follows: 1) a solvent control group of 8 mice; and 2) compound 1 group, compound 2 group, compound 5 group, compound 31 group, compound 131 group, compound 142 group, compound 171 group, compound B group and compound C group, with 8 mice per group. Mice in the solvent control group were subjected to intragastric administration of 0.5% CMC-Na once daily; mice in compound 1 group, compound 2 group, compound 5 group, compound 31 group, compound 131 group, compound 142 group, compound 171 group, compound B group and compound C group were subjected to intragastric administration of a suspension of a compound in 0.5% CMC-Na once daily. On Tuesday and Thursday each week, tumor volumes and body weight of the mice were measured, and the nude mice were sacrificed on day 21 of administration.

[3] = male, ICR, mouse, plasma, iv, 2 mg/kg
[4] = male, ICR, mouse, plasma, iv, 2 mg/kg, read-out: Cmax
[5] = male, ICR, mouse, plasma, iv, 2 mg/kg, read-out: Tmax
[6] = male, ICR, mouse, plasma, po, 10 mg/kg, 0.5% CMC-Na suspension
[7] = male, ICR, mouse, plasma, po, 10 mg/kg, 0.5% CMC-Na suspension, read-out: Cmax
[8] = male, ICR, mouse, plasma, po, 10 mg/kg, 0.5% CMC-Na suspension, read-out: Tmax
[9] = Homo sapiens, NCI-H358, 72 h, 96-well ultra-low attachment plate, Cell Titer Glow
[10] = po, 10 mg/kg, 0.5% CMC-Na suspension

Structure (SMILES) | IC50 (H358 cells; [9]) [nM] | inhibition at 1 µM (pERK level in H358 cells) [%] | other results
C=C(F)C(=O)N1CC2(CCN(c3nc(OC4CCN(CCOC)CC4)nc4c(OCC(F)(F)F)c(-c5c(C)ccc6[nH]ncc56)c(C5CC5)cc34)CC2)C1 [Compound 1] | – | – | Cl ([1]; iv, 2 mg/kg): 2.33 mL/min/kg; Cmax ([1]; iv, 2 mg/kg): 2557 ng/mL; Tmax ([1]; iv, 2 mg/kg): 1 h; Vss ([1]; iv, 2 mg/kg): 0.782 L/kg; t1/2 ([1]; iv, 2 mg/kg): 4.31 h; F [1]: 29.0%; Cmax [1, 10]: 1543 ng/mL; Tmax [1, 10]: 4 h; t1/2 [1, 10]: 6.94 h; IC50 (H358 cells; 96-well ultra-low attachment plate, Cell Titer Glow): < 300 nM; Inhibition rate (%) of pERK level (pERK level in H358 cells; compound 1 μM): +++ (+++ indicates an inhibition rate greater than 90%.); Anti-tumor effect (regression) [2]: 39% regression
C=CC(=O)N1CC2(CCN(c3nc(N4CC(N5C6CCC5CC6)C4)nc4c(OCC(F)(F)F)c(-c5c(C)c(C)cc6[nH]ncc56)c(C5CC5)cc34)CC2)C1 [Compound 326] | < 300 | > 90 | –
C=CC(=O)N1CC2(CCN(c3nc(N4CC(N5C6CCC5CC6)C4)nc4c(OCC(F)(F)F)c(-c5c(C)c(F)cc6[nH]ncc56)c(C5CC5)cc34)CC2)C1 [Compound 329] | < 300 | > 90 | –
C=CC(=O)N1CC2(CCN(c3nc(N4CC(N5CC[C@H](C)C5)C4)nc4c(OCC)c(-c5c(C)ccc6[nH]ncc56)c(C5CC5)cc34)CC2)C1 [Compound 330] | < 300 | > 90 | –
C=CC(=O)N1CC2(CCN(c3nc(N4CC(N5CC[C@@H](C)C5)C4)nc4c(OCC)c(-c5c(C)ccc6[nH]ncc56)c(C5CC5)cc34)CC2)C1 [Compound 331] | < 300 | > 90 | –
C=CC(=O)N1CC2(CCN(c3nc(N4CC(N5C6CCC5CC6)C4)nc4c(OCC)c(-c5c(C)ccc6[nH]ncc56)c(C5CC5)cc34)CC2)C1 [Compound 332] | < 300 | > 90 | –
C=CC(=O)N1CC2(CCN(c3nc(N4CC(N5CC[C@H](C)C5)C4)nc4c(OCC(F)F)c(-c5c(C)ccc6[nH]ncc56)c(C5CC5)cc34)CC2)C1 [Compound 333] | < 300 | > 90 | –
C=CC(=O)N1CC2(CCN(c3nc(N4CC(N5CC[C@@H](C)C5)C4)nc4c(OCC(F)F)c(-c5c(C)ccc6[nH]ncc56)c(C5CC5)cc34)CC2)C1 [Compound 334] | < 300 | > 90 | –
C=CC(=O)N1CC2(CCN(c3nc(N4CC(N5C6CCC5CC6)C4)nc4c(OCC(F)F)c(-c5c(C)ccc6[nH]ncc56)c(C5CC5)cc34)CC2)C1 [Compound 335] | < 300 | > 90 | –
C=CC(=O)N1CC2(CCN(c3nc(N4CC(N5CCC5)C4)nc4c(OCC(F)(F)F)c(-c5c(C)ccc6[nH]ncc56)c(C=C)cc34)CC2)C1 [Compound 336] | < 300 | > 90 | –
C=CC(=O)N1CC2(CCN(c3nc(N4CC(N5CCCC5)C4)nc4c(OCC(F)(F)F)c(-c5c(C)ccc6[nH]ncc56)c(C=C)cc34)CC2)C1 [Compound 337] | < 300 | > 90 | –
C=CC(=O)N1CC2(CCN(c3nc(N4CC5(CCN(CCOC)CC5)C4)nc4c(OCC(F)(F)F)c(-c5c(C)ccc6[nH]ncc56)c(C=C)cc34)CC2)C1 [Compound 338] | < 300 | > 90 | –
C=CC(=O)N1CC2(CCN(c3nc(N4CC(N5CC[C@H](C)C5)C4)nc4c(OCC(F)(F)F)c(-c5c(C)ccc6[nH]ncc56)c(C=C)cc34)CC2)C1 [Compound 339] | < 300 | > 90 | –
C=CC(=O)N1CC2(CCN(c3nc(N4CC(N5C6CCC5CC6)C4)nc4c(OCC(F)(F)F)c(-c5c(C)ccc6[nH]ncc56)c(C=C)cc34)CC2)C1 [Compound 341] | < 300 | > 90 | –

More lines, main results first:

IC50 (H358 cells; [9]) [nM] | Structure (SMILES) | inhibition at 1 µM (pERK level in H358 cells) [%] | other results
< 300 | C=CC(=O)N1CC2(CCN(c3nc(OC4CCN(CCOC)CC4)nc4c(OCC(F)(F)F)c(-c5c(C)ccc6[nH]ncc56)c(C5CC5)cc34)CC2)C1 [B, reference compound] | > 90 | AUC(0-t) [1, 3]: 7820 ng·h/mL; clearance [1, 3]: 4.2 mL/min/kg; half-life [1, 3]: 4.47 h; Cmax [1, 4]: 2880 ng/mL; Tmax [1, 5]: 0.083 h; Vd [1, 3]: 1.01 L/kg; AUC(0-t) [1, 6]: 10300 ng·h/mL; half-life [1, 6]: 3.74 h; Cmax [1, 7]: 1300 ng/mL; Tmax [1, 8]: 2 h; F [1]: 26.5%; IC50 (H358 cells; Homo sapiens, NCI-H358, 72 h): 4.6 nM; Anti-tumor effect (regression) [2]: 25% regression
< 300 | C=C(F)C(=O)N1CC2(CCN(c3nc(OC4CCN(CCOC)CC4)nc4c(OCC)c(-c5c(C)ccc6[nH]ncc56)c(C5CC5)cc34)CC2)C1 [Compound 2] | > 90 | Anti-tumor effect (regression) [2]: 23% regression
< 300 | C=Cc1cc2c(N3CCC4(CC3)CN(C(=O)C(=C)F)C4)nc(OC3CCN(CCOC)CC3)nc2c(OCC(F)(F)F)c1-c1c(C)ccc2[nH]ncc12 [Compound 5] | > 90 | Anti-tumor effect (regression) [2]: 30% regression
< 300 | C=CC(=O)N1CC2(CCN(c3nc(OC4CC5(CCN(CCOC)CC5)C4)nc4c(OCC(F)(F)F)c(-c5c(C)ccc6[nH]ncc56)c(C5CC5)cc34)CC2)C1 [Compound 131] | > 90 | AUC(0-t) [1, 3]: 11300 ng·h/mL; clearance [1, 3]: 1.87 mL/min/kg; half-life [1, 3]: 4.12 h; Cmax [1, 4]: 2350 ng/mL; Tmax [1, 5]: 0.5 h; Vd [1, 3]: 2.1 L/kg; AUC(0-t) [1, 6]: 22300 ng·h/mL; half-life [1, 6]: 5.86 h; Cmax [1, 7]: 1820 ng/mL; Tmax [1, 8]: 2 h; F [1]: 39.4%; IC50 (H358 cells; Homo sapiens, NCI-H358, 72 h): 1.5 nM; Anti-tumor effect (regression) [2]: 37% regression
< 300 | C=CC(=O)N1CC2(CCN(c3nc(N4CC(N5CCC5)C4)nc4c(OCC(F)(F)F)c(-c5c(C)ccc6[nH]ncc56)c(C(=C)C)cc34)CC2)C1 [Compound 320] | > 90 | –
< 300 | C=CC(=O)N1CC2(CCN(c3nc(N4CC(N5CCCC5)C4)nc4c(OCC(F)(F)F)c(-c5c(C)ccc6[nH]ncc56)c(C(=C)C)cc34)CC2)C1 [Compound 321] | > 90 | –
< 300 | C=CC(=O)N1CC2(CCN(c3nc(N4CC(N5CCC5)C4)nc4c(OCC(F)(F)F)c(-c5c(C)ccc6[nH]ncc56)c(C5(C)CC5)cc34)CC2)C1 [Compound 322] | > 90 | –
< 300 | C=CC(=O)N1CC2(CCN(c3nc(N4CC(N5CCCC5)C4)nc4c(OCC(F)(F)F)c(-c5c(C)ccc6[nH]ncc56)c(C5(C)CC5)cc34)CC2)C1 [Compound 323] | > 90 | –
< 300 | C=CC(=O)N1CC2(CCN(c3nc(N4CC(N5CCC(C)C5)C4)nc4c(OCC(F)(F)F)c(-c5c(C)c(C)cc6[nH]ncc56)c(C5CC5)cc34)CC2)C1 (stereo not drawn) [Compound 324] | > 90 | –
< 300 | C=CC(=O)N1CC2(CCN(c3nc(N4CC(N5CC[C@@H](C)C5)C4)nc4c(OCC(F)(F)F)c(-c5c(C)c(C)cc6[nH]ncc56)c(C5CC5)cc34)CC2)C1 [Compound 325] | > 90 | –
< 300 | C=CC(=O)N1CC2(CCN(c3nc(N4CC(N5CC[C@H](C)C5)C4)nc4c(OCC(F)(F)F)c(-c5c(C)c(F)cc6[nH]ncc56)c(C5CC5)cc34)CC2)C1 [Compound 327] | > 90 | –
< 300 | C=CC(=O)N1CC2(CCN(c3nc(N4CC(N5CC[C@@H](C)C5)C4)nc4c(OCC(F)(F)F)c(-c5c(C)c(F)cc6[nH]ncc56)c(C5CC5)cc34)CC2)C1 [Compound 328] | > 90 | –

Reference: patent US12479843B2, “Spiro ring-containing quinazoline compounds” (WIGEN BIOMEDICINE TECHNOLOGY (SHANGHAI) CO., LTD., priority 2019, dated 2025)
